Series [1] deals with Medicago sativa (alfalfa) seeds. Kind of series: Alfalfa germination test. How it is done:
(§1) Independent 60 seed to 800 seed germination tests were conducted following standard seed testing protocols. Briefly, the seeds were placed on filter paper wettened with the active ingredient solution or nanoparticle suspension under investigation and germinated for 5-10 days. The infection of seeds with fungi and bacteria, and the germination rates were determined by counting the infested and germinated seeds, respectively. The germination speed was assessed by counting all fully emerged cotyledons. Blanks (water only) and dissolved silicon control (orthosilicic acid solution) were run in parallel to all experiments in 3-8 replicates. As a positive control, a solution of the commercially available fungicide tebuconazole was run in parallel. The SiO2-NP exposed plants were embedded in low viscosity epoxy resin for transmission electron microscopy imaging.

A further series concerns fungi and bacteria. In words: Alfalfa germination test: infection of seeds. The series is classed as in vivo, Medicago sativa. To be noted: positive control. How it is done:
as §1

The values that follow come from US12433292B2, “Method of production of controlled release silica nanoparticles for plant growth and/or defense enhancement” (ADOLPHE MERKLE INSTITUTE, UNIVERSITY OF FRIBOURG, priority 2019, dated 2025).

For the molecule `CC(C)(C)C(O)(CCc1ccc(Cl)cc1)Cn1cncn1` (stereo not drawn) [tebuconazole], in series [1] (100 ppm), the cotyledon emergence result is given as “detrimental effects” and the germination entry was “detrimental effects”. Also, in series [1] (4000 ppm), the “adverse effects on germinating seeds” value is “some adverse effects”. The “toxicity to the seed” value in series [1] (same or comparable concentrations) is reported as “exhibited toxicity to the seeds”. Besides, in the series with fungi and bacteria, the effect on fungi entry is “killing all fungi”.
Take orthosilicic acid: the “overall effect on fungal infection, cotyledon emergence, seed vigor and biomass” value in series [1] (germination and soil growth tests) was “performed equally or worse compared to the nanoparticles”.
